Test results as given in patent US7297702B2, “Contraception method using competitive progesterone antagonists and novel compounds useful therein” (Schering Aktiengesellschaft, priority 2004, dated 2007).
Where “and” joins values, the source holds several entries; their conditions need not be identical. Identical values can stand only once.

Legend:
rat [1] = assay: Implantation inhibition (antinidatory effectiveness) in the rat; type: in vivo
rat [2] = assay: Dissociation factor: ovulation inhibition test versus implantation inhibition in the rat; type: in vivo; settings: for peripherally selective effectiveness (endometrium versus hypophysial-ovarian axis): endometrial effect very greatly pronounced, at the same dose at most only a slight central effect; for Dissociation factor: ratio of ovulation-inhibiting dose and implantation inhibiting dose, rat, peroral administration
Text: Such competitive progesterone antagonists can also be designated as dissociated, since at a specific threshold dose, although changes of the endometrium are observed, ovulation (central effect) is not inhibited. The ratio of ovulation-inhibiting dose and implantation inhibiting dose (dissociation factor) (as determined in the rat after peroral administration) can be used as a measurement of the dissociation. This ratio varies from species to species but is at least about 30 or higher in a dissociated or competitive progesterone antagonist.
Such competitive progesterone antagonists can also be designated as dissociated, since at a specific threshold dose, changes of the endometrium are observed, but the ovulation (central effect) is not inhibited. The ratio of ovulation-inhibiting and implantation inhibiting (dissociation factor) doses can be used as a measurement for the dissociation. It varies depending on the species and is about. 30 or more for a dissociated competitive progesterone antagonist (in the rat after peroral administration) to be used according to the invention.
To determine the ovulation-inhibiting doses of competitive progesterone antagonists, the ovulation-inhibiting test described below is performed on the rat; the respective abortively effective doses follow from the known (e.g., U.S. Pat. No. 5,095,129) rat abortive test.
Ovulation Inhibition Test on the Rat
For detection of ovulation-inhibiting substances, the rat is well-suited insofar as it spontaneously ovulates and the cycle can easily be observed by means of vaginal smears. This makes it possible to control the course of the test also during the treatment phase.
Female rats weighing 190-210 g, pro dosi 6 animals.
The animals are kept in Macrolon cages in rooms with controlled exposure to light (10 hours of darkness: 14 hours of brightness), fed a standard diet (pelletized rat food) and tap water at will.
The test substances are dissolved in benzyl benzoate/castor oil (1+9 v/v) and the daily dose is administered in a volume of 0.2 ml s.c.
In the oral application, the test substance is suspended in a carrier liquid (85 mg of Myrj® in 100 ml of 0.9% w/v NaCl solution) and the daily dose is administered in a volume of 0.5 ml.
Two cycles are observed before the beginning of the test by means of vaginal smears. Only animals with a regular 4-day cycle are used in the test. The assignment to the treatment groups takes place at random. Beginning in the metestrus, the test substance is administered over 4 days (day 1-4) and the cycle is further controlled.
On day 4 (after the administration), animals, which have an estrus or metestrus at the time of the vaginal smear, are ovariectomized on one side under ether anesthesia. Crush preparations are prepared from the tubes and examined by microscope for the presence of egg cells. On day 5, all animals (intact and unilaterally ovariectomized) are killed with CO2 gas and the tubes are prepared and examined in the same way.
In the individual dosage groups, the percentage of animals in which the ovulation was inhibited is determined.

[3] = Thymolysis test for antiglucocorticoidal effect; type: in vivo; settings: thymolysis test (EP-A-0 283 428)
Text: This is seen from the thymolysis test for antiglucocorticoidal effect (EP-A-0 283 428).

humans = settings: 50 mg, given during the late luteal phase; cited from earlier work
women = assay: Human Study 3: once-a-week oral onapristone; type: in vivo; settings: once-a-week oral 0.25-50 mg over two cycles
Protocol: Duration of the study: Evaluation of three cycles: pre-treatment, treatment and post-treatment cycles. • Regimen: 18 daily oral administration of 20 mg (group 1), 10 mg (group 2) and 5 mg (group 3) onapristone starting on day 1 of the cycle. c) Evaluation: • RIA, LH, FSH, E2 and progesterone and cortisol during the pre-treatment, treatment and post-treatment cycles. • Evaluation of endometrial biopsies and collection of the uterine fluid (by prevical) on day 16 and day 23 of the treatment cycle (see appendix for details) • Occurrence of menstrual bleeding. Human Study 3: Effects of once-a-week administration of onapristone on ovulation, endometrial morphology and biochemistry a) Objective:
Groups of volunteers: […] (five treatment groups and a control group) of 8-10 women with ligated oviducts.
Duration of the study: Evaluation of four cycles: pre-treatment, two treatment and post-treatment cycles.
Once-a-week oral administration of 50 mg (group 1) 20 mg (group 2), 10 mg (group 3) 2 mg ([…]) and 0.25 mg (group 5), onapristone starting on day 1 of the cycle over the two cycles.
RIA, LH, FSH, E2 and progesterone during the pre-treatment, treatment and post-treatment cycles.
Evaluation of endometrial biopsies and collection of the uterine fluid on day 16 and day 23 of both treatment cycles (see appendix for details).
Occurrence of menstrual bleeding and cycle abnormalities: […]

[4] = test system: adult, female bonnet monkeys (Macaca radiata); assay: Weekly s.c. Onapriston in bonnet monkeys: length of menstrual cycle and menstrual period; type: in vivo; settings: for Length of MC, After-treatment Cycle / Length of MC, Treatment Cycle 1 / Length of MC, Treatment Cycle 2 / Length of MD, After-treatment Cycle / Length of MP, Treatment Cycle 1 / Length of MP, Treatment Cycle 2 / Length of MC, Pretreatment Cycle / Length of MP, Pretreatment Cycle: individual animals; for Length of MC, Pretreatment Cycle / Length of MP, Pretreatment Cycle: pretreatment cycle (baseline)
Text: (§1) The above-described use of competitive progesterone antagonists is evidenced by tests performed with Onapriston [11β-(4-dimethylaminophenyl)-17α-hydroxy-17β-(3-hydroxy-propyl)-13α-methyl-4,9-gonadien-3-one; EP-A-0129499], a typically competitive progesterone antagonist, on adult, female bonnet monkeys (Macaca radiata).

endometrium = assay: Weekly s.c. Onapriston in bonnet monkeys: endometrial histology (biopsy day 20 of second cycle); type: in vivo, Macaca radiata; settings: both treatment groups (5 mg and 10 mg weekly s.c.), after 7 administrations
Text: as §1

[5] = test system: adult, female bonnet monkeys (Macaca radiata); assay: Weekly s.c. Onapriston in bonnet monkeys: estradiol and progesterone levels (RIA), folliculogenesis and ovulation; type: in vivo; settings: 5 mg and 10 mg per animal s.c. weekly, 2 cycles
Text: as §1

Molecule: 11β,19-[4-(3-pyridinyl)-o-phenylene]-17β-hydroxy-17α-(3-hydroxyprop-1(Z)-enyl)-4-androsten-3-one [II]
- daily dose still completely implantation-inhibiting effective (rat [1]): 0.3 mg
- peripherally selective effectiveness (endometrium versus hypophysial-ovarian axis) (rat [2]): surprisingly pronounced peripherally selective effectiveness
- Dissociation factor (rat [2]): >30
- antiglucocorticoidal effect [3]: not simultaneously antiglucocorticoidally effective

Molecule: 11β,19-[4-(4-cyanophenyl)-o-phenylene]-17β-hydroxy-17α-(3-hydroxyprop-1(Z)-enyl)-4-androsten-3-one [I]
- daily dose still completely implantation-inhibiting effective (rat [1]): 0.1 mg
- peripherally selective effectiveness (endometrium versus hypophysial-ovarian axis) (rat [2]): surprisingly pronounced peripherally selective effectiveness
- Dissociation factor (rat [2]): >100
- antiglucocorticoidal effect [3]: not simultaneously antiglucocorticoidally effective

Molecule: CN(C)c1ccc([C@H]2C[C@]3(C)[C@@H](CC[C@]3(O)CCCO)[C@@H]3CCC4=CC(=O)CCC4=C32)cc1 [Onapriston, 11β-(4-dimethylaminophenyl)-17α-hydroxy-17β-(3-hydroxy-propyl)-13α-methyl-4,9-gonadien-3-one]
- effect on menstruation (humans): induce premature menstruation
- contraception reliability (women): high contraception reliability
- control of the cycle compared to the control group (women): better control of the cycle
- tolerance (women): high tolerance
- length of the cycle and the menstrual period relative to the control group ([4]; 5 mg and 10 mg per animal s.c. weekly, 2 cycles): not changed
- Length of MC, After-treatment Cycle ([4]; Group 2, 5 mg/week s.c.): 27 day (2×) and 31 day
- Length of MC, Treatment Cycle 1 ([4]; Group 2, 5 mg/week s.c.): 24 days and 27 days and 26 days
- Length of MC, Treatment Cycle 2 ([4]; Group 2, 5 mg/week s.c.): 39 days and 29 days and 26 days
- Length of MD, After-treatment Cycle ([4]; Group 2, 5 mg/week s.c.): 4 day (2×) and 3 day
- Length of MP, Treatment Cycle 1 ([4]; Group 2, 5 mg/week s.c.): 2 day and 1 day (2×)
- Length of MP, Treatment Cycle 2 ([4]; Group 2, 5 mg/week s.c.): 5 day and 1 day (2×)
- Length of MC, Pretreatment Cycle ([4]; Group 2, 5 mg/week s.c.): 26 days and 28 days and 24 days
- Length of MP, Pretreatment Cycle ([4]; Group 2, 5 mg/week s.c.): 1 day (2×) and 3 day
- Length of MC, After-treatment Cycle ([4]; Group 3, 10 mg/week s.c.): 26 days and 48 days and 27 days
- Length of MC, Treatment Cycle 1 ([4]; Group 3, 10 mg/week s.c.): 25 days and 26 days and 28 days
- Length of MD, After-treatment Cycle ([4]; Group 3, 10 mg/week s.c.): 4 days and 1 days and 3 days
- Length of MP, Treatment Cycle 1 ([4]; Group 3, 10 mg/week s.c.): 3 day and 1 day (2×)
- Length of MP, Treatment Cycle 2 ([4]; Group 3, 10 mg/week s.c.): 1 day (2×) and 2 day
- Length of MC, Treatment Cycle 2 ([4]; Group 3, 10 mg/week s.c., * = 2 ovulation cycles, bleeding slight after the first cycle): 53* day and 25 day and 28 day
- Length of MC, Pretreatment Cycle ([4]; Group 3, 10 mg/week s.c.): 26 days and 24 days and 30 days
- Length of MP, Pretreatment Cycle ([4]; Group 3, 10 mg/week s.c.): 4 days and 2 days and 3 days
- endometrial histology in contrast to control animals (endometrium): atrophied
- folliculogenesis and ovulation (estradiol and progesterone levels) [5]: occurred normally in all animals

Molecule: CC#C[C@]1(O)CC[C@H]2[C@@H]3CCC4=CC(=O)CCC4=C3[C@@H](c3ccc(N(C)C)cc3)C[C@@]21C [RU 486, 11β-[4-N,N-(dimethylamino)phenyl]-17β-hydroxy-17α-propinyl-estra-4,9(10)-dien-3-one]
- Dissociation factor (rat [2]): <10
